# Laboratory results: patent US6992079B2, “Substituted 11-phenyl-dibenzazepine compounds useful for the treatment or prevention of diseases characterized by abnormal cell proliferation” (President Fellows of Harvard College, priority 1997, dated 2006)
# Where two headings read alike, the source gives them in different places.
# Legend:
# K-562 = test: In-Vitro Testing SRB panel: Leukemia; assay type: cell-based
# PC-3 = test: In-Vitro Testing SRB panel: Prostate Cancer; assay type: cell-based; details: PC-3
# NCI-H522 = assay type: cell-based; details: NCI-H522
# CCRF-CEM = test: In-Vitro Testing SRB panel: Leukemia; assay type: cell-based
# SNB-19 = test: In-Vitro Testing SRB panel: CNS Cancer; assay type: cell-based; details: SNB-19
# T-47D = test: In-Vitro Testing SRB panel: Breast Cancer; assay type: cell-based
# OVCAR-4 = test: In-Vitro Testing SRB panel: Ovarian Cancer; assay type: cell-based; details: OVCAR-4
# MC-F7 = test: In-Vitro Testing SRB panel: Breast Cancer; assay type: cell-based
# ACHN = test: In-Vitro Testing SRB panel: Renal Cancer; assay type: cell-based
# [1] = test system: H460 large cell lung carcinoma; test: Mouse xenograft tumor growth; assay type: in vivo, CD-1 nude mice
# NCI-H460 = assay type: cell-based; details: NCI-H460
# SW-620 = test: In-Vitro Testing SRB panel: Colon Cancer; assay type: cell-based; details: SW-620
# ROP-62 = assay type: cell-based
# BT-549 = test: In-Vitro Testing SRB panel: Breast Cancer; assay type: cell-based; details: BT-549
# [2] = test system: A2058 metastatic melanoma; test: Mouse xenograft tumor growth; assay type: in vivo, CD-1 nude mice
# Experimental: NCI-A2058 human melanoma cell line was grown as monolayer culture in Minimum essential medium (D-MEM) supplemented with 10% fetal bovine serum (FBS), 0.1 mM non-essential amino acid, 1.0 mM sodium pyruvate, 100U/ml penicillin, 100 μg/ml streptomycin and 0.25 μg/ml amphotericin B and L-alanyl-1-glutamine (2 mM) at 37° C. in an atmosphere of 5% CO2 in air. The tumor cells were routinely subcultured twice weekly by trypsin-EDTA treatment. The cells were harvested from subconfluent logarithmically growing culture by treatment with typsin-EDTA and counted for tumor inoculation.
# An acclimation period of at least 7 days were allowed between animal receipt and commence of tumor inoculation. When the female CD-1 nude mice were more than 6-7 weeks of age (20-25 g), each mouse was subcutaneously injected with 5.0×10^6 NCI-A2058 human melanoma cells in 0.1 ml of PBS solution at the right flank of the mice to induce tumor growth.
# CARI-1 = test: In-Vitro Testing SRB panel: Renal Cancer; assay type: cell-based
# [3] = Homo sapiens, read-out: LC50 (the source's name)
smiles,measurement,setting,value
COc1cccc2c1C(c1ccccc1Cl)c1cc(Cl)ccc1N(C(=O)c1ccc([N+](=O)[O-])cc1)C2 (stereo not drawn) [Compound 31],GI50,"K-562; Homo sapiens, K562",506 nM
same,CC50,"K-562; Homo sapiens, K562, K-562, read-out: LC50 (the source's name)",> 100000 nM
same,TGI,K-562; K-562,>1.00E−04 Molar
same,Percent Growth,"K-562; K-562, log10 conc -4 Molar",15%
same,Percent Growth,"K-562; K-562, log10 conc -5 Molar",24%
same,Percent Growth,"K-562; K-562, log10 conc -6 Molar",39%
same,Percent Growth,"K-562; K-562, log10 conc -7 Molar",77%
same,Percent Growth,"K-562; K-562, log10 conc -8 Molar",93%
same,GI50,PC-3; Homo sapiens,334 nM
same,CC50,PC-3; [3],> 100000 nM
same,TGI,PC-3,7.30E−06 Molar
same,Percent Growth,PC-3; log10 conc -4 Molar,−26%
same,Percent Growth,PC-3; log10 conc -5 Molar,−6%
same,Percent Growth,PC-3; log10 conc -6 Molar,35%
same,Percent Growth,PC-3; log10 conc -7 Molar,66%
same,Percent Growth,PC-3; log10 conc -8 Molar,91%
same,GI50,NCI-H522; Homo sapiens,7480 nM
same,CC50,NCI-H522; [3],> 100000 nM
same,TGI,NCI-H522,>1.00E−04 Molar
same,Percent Growth,NCI-H522; log10 conc -4 Molar,36%
same,Percent Growth,NCI-H522; log10 conc -5 Molar,44%
same,Percent Growth,NCI-H522; log10 conc -6 Molar,89%
same,Percent Growth,NCI-H522; log10 conc -7 Molar,88%
same,Percent Growth,NCI-H522; log10 conc -8 Molar,99%
same,TGI,CCRF-CEM,>1.00E−04 Molar
same,GI50,CCRF-CEM; Homo sapiens,1530 nM
same,CC50,CCRF-CEM; [3],> 100000 nM
same,Percent Growth,CCRF-CEM; log10 conc -4 Molar,2%
same,Percent Growth,CCRF-CEM; log10 conc -5 Molar,21%
same,Percent Growth,CCRF-CEM; log10 conc -6 Molar,56%
same,Percent Growth,CCRF-CEM; log10 conc -7 Molar,94%
same,Percent Growth,CCRF-CEM; log10 conc -8 Molar,111%
same,GI50,SNB-19; Homo sapiens,2610 nM
same,CC50,SNB-19; [3],> 100000 nM
same,TGI,SNB-19,5.66E−05 Molar
same,Percent Growth,SNB-19; log10 conc -4 Molar,−5%
same,Percent Growth,SNB-19; log10 conc -5 Molar,16%
same,Percent Growth,SNB-19; log10 conc -6 Molar,74%
same,Percent Growth,SNB-19; log10 conc -7 Molar,99%
same,Percent Growth,SNB-19; log10 conc -8 Molar,102%
same,GI50,"T-47D; Homo sapiens, T47D",2970 nM
same,CC50,"T-47D; Homo sapiens, T47D, T-47D, read-out: LC50 (the source's name)",> 100000 nM
same,TGI,T-47D; T-47D,>1.00E−04 Molar
same,Percent Growth,"T-47D; T-47D, log10 conc -4 Molar",27%
same,Percent Growth,"T-47D; T-47D, log10 conc -5 Molar",34%
same,Percent Growth,"T-47D; T-47D, log10 conc -6 Molar",65%
same,Percent Growth,"T-47D; T-47D, log10 conc -7 Molar",90%
same,Percent Growth,"T-47D; T-47D, log10 conc -8 Molar",92%
same,GI50,OVCAR-4; Homo sapiens,1830 nM
same,CC50,OVCAR-4; [3],> 100000 nM
same,TGI,OVCAR-4,8.34E−05 Molar
same,Percent Growth,OVCAR-4; log10 conc -4 Molar,−1%
same,Percent Growth,OVCAR-4; log10 conc -5 Molar,16%
same,Percent Growth,OVCAR-4; log10 conc -6 Molar,62%
same,Percent Growth,OVCAR-4; log10 conc -7 Molar,83%
same,Percent Growth,OVCAR-4; log10 conc -8 Molar,91%
same,GI50,"MC-F7; Homo sapiens, MCF7",821 nM
same,CC50,"MC-F7; Homo sapiens, MCF7, MC-F7, read-out: LC50 (the source's name)",> 100000 nM
same,TGI,MC-F7; MC-F7,>1.00E−04 Molar
same,Percent Growth,"MC-F7; MC-F7, log10 conc -4 Molar",5%
same,Percent Growth,"MC-F7; MC-F7, log10 conc -5 Molar",19%
same,Percent Growth,"MC-F7; MC-F7, log10 conc -6 Molar",46%
same,Percent Growth,"MC-F7; MC-F7, log10 conc -7 Molar",93%
same,Percent Growth,"MC-F7; MC-F7, log10 conc -8 Molar",97%
same,TGI,ACHN,>1.00E−04 Molar
same,GI50,ACHN; Homo sapiens,803 nM
same,CC50,ACHN; [3],> 100000 nM
same,Percent Growth,ACHN; log10 conc -4 Molar,8%
same,Percent Growth,ACHN; log10 conc -5 Molar,26%
same,Percent Growth,ACHN; log10 conc -6 Molar,45%
same,Percent Growth,ACHN; log10 conc -7 Molar,95%
same,Percent Growth,ACHN; log10 conc -8 Molar,92%
same,tumor growth,[1],showed inhibition of tumor growth
same,GI50,NCI-H460; Homo sapiens,595 nM
same,CC50,NCI-H460; [3],> 100000 nM
same,TGI,NCI-H460,2.81E−05 Molar
same,Percent Growth,NCI-H460; log10 conc -4 Molar,−16%
same,Percent Growth,NCI-H460; log10 conc -5 Molar,10%
same,Percent Growth,NCI-H460; log10 conc -6 Molar,36%
same,Percent Growth,NCI-H460; log10 conc -7 Molar,99%
same,Percent Growth,NCI-H460; log10 conc -8 Molar,96%
same,GI50,SW-620; Homo sapiens,2000 nM
same,CC50,SW-620; [3],> 100000 nM
same,TGI,SW-620,>1.00E−04 Molar
same,Percent Growth,SW-620; log10 conc -4 Molar,27%
same,Percent Growth,SW-620; log10 conc -5 Molar,34%
same,Percent Growth,SW-620; log10 conc -6 Molar,57%
same,Percent Growth,SW-620; log10 conc -7 Molar,94%
same,Percent Growth,SW-620; log10 conc -8 Molar,105%
same,GI50,ROP-62; Homo sapiens,> 100000 nM
same,CC50,"ROP-62; Homo sapiens, ROP-62, read-out: LC50 (the source's name)",> 100000 nM
same,TGI,ROP-62; ROP-62,>1.00E−04 Molar
same,Percent Growth,"ROP-62; ROP-62, log10 conc -4 Molar",50%
same,Percent Growth,"ROP-62; ROP-62, log10 conc -5 Molar",79%
same,Percent Growth,"ROP-62; ROP-62, log10 conc -6 Molar",88%
same,Percent Growth,"ROP-62; ROP-62, log10 conc -7 Molar",105%
same,Percent Growth,"ROP-62; ROP-62, log10 conc -8 Molar",100%
same,TGI,BT-549,>1.00E−04 Molar
same,Percent Growth,BT-549; log10 conc -4 Molar,11%
same,Percent Growth,BT-549; log10 conc -5 Molar,43%
same,Percent Growth,BT-549; log10 conc -6 Molar,59%
same,Percent Growth,BT-549; log10 conc -7 Molar,94%
same,Percent Growth,BT-549; log10 conc -8 Molar,92%
same,GI50,BT-549; Homo sapiens,3830 nM
same,CC50,BT-549; [3],> 100000 nM
same,tumor growth,[2],showed inhibition of tumor growth
same,TGI,CARI-1; CARI-1,>1.00E−04 Molar
same,Percent Growth,"CARI-1; CARI-1, log10 conc -4 Molar",4%
same,Percent Growth,"CARI-1; CARI-1, log10 conc -5 Molar",37%
same,Percent Growth,"CARI-1; CARI-1, log10 conc -6 Molar",48%
same,Percent Growth,"CARI-1; CARI-1, log10 conc -7 Molar",80%
same,Percent Growth,"CARI-1; CARI-1, log10 conc -8 Molar",103%
same,GI50,CARI-1; Homo sapiens,888 nM
same,CC50,"CARI-1; Homo sapiens, CARI-1, read-out: LC50 (the source's name)",> 100000 nM
